Measurements reported in ChEMBL document CHEMBL1155368, “Derivatives of aryl amines containing the cytotoxic 1,4-dioxo-2-butenyl pharmacophore” (Bioorg Med Chem Lett, 2010).

Experiments:
CCRF-CEM = experiment: Cytotoxicity against human CEM cells; assay type: functional, cell-based
[1] = Cytotoxicity against human Molt4/C8 cells; assay type: functional, cell-based; settings: MOLT-4
L1210 = experiment: Cytotoxicity against mouse L1210 cells; assay type: functional, cell-based
[2] = target: T1, Glycylpeptide N-tetradecanoyltransferase 1 (Homo sapiens, UniProt P30419); experiment: Inhibition of human NMT expressed in Escherichia coli DH5alpha cells
T1 sequence (P30419 whole entry): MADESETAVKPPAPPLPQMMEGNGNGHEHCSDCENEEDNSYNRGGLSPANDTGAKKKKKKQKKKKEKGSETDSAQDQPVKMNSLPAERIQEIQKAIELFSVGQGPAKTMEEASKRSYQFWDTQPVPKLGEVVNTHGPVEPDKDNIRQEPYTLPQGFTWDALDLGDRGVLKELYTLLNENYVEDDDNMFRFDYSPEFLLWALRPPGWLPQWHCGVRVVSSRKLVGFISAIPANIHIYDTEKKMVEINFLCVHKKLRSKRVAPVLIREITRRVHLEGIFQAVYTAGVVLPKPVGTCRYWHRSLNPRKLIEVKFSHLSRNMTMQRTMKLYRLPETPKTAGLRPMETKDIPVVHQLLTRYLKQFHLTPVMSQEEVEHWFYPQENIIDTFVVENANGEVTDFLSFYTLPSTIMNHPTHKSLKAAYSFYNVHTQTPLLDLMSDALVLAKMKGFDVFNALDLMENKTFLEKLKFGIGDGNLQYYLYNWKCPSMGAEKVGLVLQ

Mus musculus [3] = experiment: Toxicity in mouse assessed as mortality at 30 to 300 mg/kg, ip after 0.5 to 4 hrs; assay type: organism-based; parameters: dose 30-300 mg/kg, route intraperitoneal; settings: in vivo
Mus musculus [4] = experiment: Toxicity in mouse assessed as mortality at 300 mg/kg, ip after 4 hrs; assay type: organism-based; parameters: dose 300 mg/kg, route intraperitoneal; settings: in vivo
Mus musculus [5] = experiment: Toxicity in mouse assessed as mortality at 100 mg/kg, ip after 4 hrs; assay type: organism-based; parameters: dose 100 mg/kg, route intraperitoneal; settings: in vivo
Mus musculus [6] = experiment: Toxicity in mouse assessed as mortality at 30 mg/kg, ip after 4 hrs; assay type: organism-based; parameters: dose 30 mg/kg, route intraperitoneal; settings: in vivo

Row | SMILES | IC50 (CCRF-CEM) | IC50 [1] | IC50 (L1210) | IC50 [2] | Activity (Mus musculus [3]) | Activity (Mus musculus [4]) | Activity (Mus musculus [5]) | Activity (Mus musculus [6])
1 | COC(=O)/C=C\C(=O)Nc1ccc(C)cc1 | 36 µM | 37 µM | 47 µM | > 10000 µM | – | – | – | –
2 | COC(=O)/C=C\C(=O)Nc1ccc(C)c(C)c1 | 228 µM | 188 µM | 202 µM | – | – | – | – | –
3 | O=C(O)/C=C/C(=O)Nc1ccc(Cl)c(Cl)c1 | 209 µM | 214 µM | 314 µM | – | Non-toxic | – | – | –
4 | O=C1C=C/C(=N\c2ccc(Cl)cc2)O1 | 182 µM | 30 µM | 59 µM | – | – | – | – | –
5 | COC(=O)CCC(=O)Nc1ccccc1 | > 500 µM | > 500 µM | > 500 µM | – | – | – | – | –
6 | O=C1CCC(=O)N1c1ccc([N+](=O)[O-])cc1 | 202 µM | 210 µM | 41 µM | – | – | Toxic | Toxic | –
7 | COC(=O)/C=C\C(=O)Nc1ccccc1 | > 500 µM | > 500 µM | > 500 µM | – | – | – | – | –
8 | COC(=O)/C=C\C(=O)Nc1ccc(Cl)c(Cl)c1 | 55 µM | 41 µM | 39 µM | – | – | Toxic | – | –
9 | O=C1CCC(=O)N1c1ccc(Cl)cc1 | 231 µM | 218 µM | 194 µM | – | – | Toxic | Toxic | –
10 | Cc1ccc(N2C(=O)CCC2=O)cc1 | 42 µM | 43 µM | 7.8 µM | – | – | Toxic | Toxic | –
11 | COc1ccc(N2C(=O)CCC2=O)cc1 | 295 µM | 281 µM | 225 µM | – | – | Toxic | Toxic | –
12 | CC(=O)c1ccc(N2C(=O)CCC2=O)cc1 | 215 µM | 93 µM | 31 µM | – | – | Toxic | Toxic | –
13 | O=C1C=C/C(=N\c2ccccc2)O1 | > 500 µM | > 500 µM | > 500 µM | – | – | – | – | –
14 | O=C1C=C/C(=N\c2ccc(Cl)c(Cl)c2)O1 | 54 µM | 58 µM | 47 µM | – | – | Toxic | – | –
15 | Cc1ccc(/N=C2\C=CC(=O)O2)cc1 | 357 µM | 301 µM | 271 µM | – | – | – | – | –
16 | Cc1ccc(/N=C2\C=CC(=O)O2)cc1C | 195 µM | 161 µM | 69 µM | – | – | – | – | –
17 | COc1ccc(/N=C2\C=CC(=O)O2)cc1 | > 500 µM | > 500 µM | > 500 µM | – | – | – | – | –
18 | O=C1C=C/C(=N\c2ccc([N+](=O)[O-])cc2)O1 | 161 µM | 60 µM | 69 µM | – | – | Toxic | – | –
19 | CC(=O)c1ccc(/N=C2\C=CC(=O)O2)cc1 | 205 µM | 214 µM | 219 µM | – | – | – | – | –
20 | COC(=O)/C=C\C(=O)Nc1ccc(Cl)cc1 | 95 µM | 41 µM | 78 µM | – | Non-toxic | – | – | –
21 | Cc1ccc(NC(=O)/C=C/C(=O)O)cc1 | > 500 µM | > 500 µM | > 500 µM | – | Non-toxic | – | – | –
22 | Cc1ccc(NC(=O)/C=C/C(=O)O)cc1C | > 500 µM | > 500 µM | 466 µM | – | Non-toxic | – | – | –

Row | SMILES | IC50 (CCRF-CEM) | IC50 [1] | IC50 (L1210) | IC50 [2] | Activity (Mus musculus [3]) | Activity (Mus musculus [4]) | Activity (Mus musculus [5]) | Activity (Mus musculus [6])
23 | COc1ccc(NC(=O)/C=C/C(=O)O)cc1 | > 500 µM | > 500 µM | > 500 µM | – | Non-toxic | – | – | –
24 | O=C(O)/C=C/C(=O)Nc1ccc([N+](=O)[O-])cc1 | > 500 µM | 236 µM | > 500 µM | – | Non-toxic | – | – | –
25 | CC(=O)c1ccc(NC(=O)/C=C/C(=O)O)cc1 | > 500 µM | > 500 µM | > 500 µM | – | Non-toxic | – | – | –
26 | Cc1cccc(C)c1NC(=O)/C=C/C(=O)O | > 500 µM | > 500 µM | > 500 µM | – | Non-toxic | – | – | –
27 | COC(=O)/C=C/C(=O)Nc1ccccc1 | 40 µM | 42 µM | 40 µM | – | Non-toxic | – | – | –
28 | COC(=O)/C=C/C(=O)Nc1c(C)cccc1C | 31 µM | 26 µM | 34 µM | – | Non-toxic | – | – | –
29 | COC(=O)/C=C/C(=O)Nc1ccc(Cl)cc1 | 9.6 µM | 8.2 µM | 7.5 µM | – | Non-toxic | – | – | –
30 | COC(=O)/C=C/C(=O)Nc1ccc(Cl)c(Cl)c1 | 4.8 µM | 2.4 µM | 0.37 µM | – | Non-toxic | – | – | –
31 | COC(=O)/C=C/C(=O)Nc1ccc(C)cc1 | 15 µM | 21 µM | 9.3 µM | – | – | – | Toxic | –
32 | COC(=O)/C=C/C(=O)Nc1ccc(C)c(C)c1 | 7.6 µM | 4.6 µM | 2.2 µM | 2330 µM | Non-toxic | – | – | –
33 | COC(=O)/C=C/C(=O)Nc1ccc(OC)cc1 | 37 µM | 10 µM | 18 µM | – | Non-toxic | – | – | –
34 | COC(=O)/C=C/C(=O)Nc1ccc([N+](=O)[O-])cc1 | 11 µM | 7.3 µM | 6.2 µM | – | Non-toxic | – | – | –
35 | COC(=O)/C=C/C(=O)Nc1ccc(C(C)=O)cc1 | 32 µM | 35 µM | 17 µM | – | – | – | – | –
36 | O=C(O)/C=C/C(=O)Nc1ccc(Cl)cc1 | > 500 µM | > 500 µM | > 500 µM | – | Non-toxic | – | – | –
37 | COC(=O)/C=C\C(=O)Nc1ccc([N+](=O)[O-])cc1 | 190 µM | 210 µM | 208 µM | – | – | Toxic | – | –
38 | COC(=O)/C=C\C(=O)Nc1ccc(C(C)=O)cc1 | 44 µM | 50 µM | 184 µM | – | – | Toxic | – | –
39 | COC(=O)/C=C\C(=O)Nc1c(C)cccc1C | 183 µM | 192 µM | 184 µM | – | – | – | – | –
40 | O=C(O)CCC(=O)Nc1ccccc1 | > 500 µM | > 500 µM | > 500 µM | – | – | – | – | –
41 | O=C(O)/C=C/C(=O)Nc1ccccc1 | > 500 µM | > 500 µM | > 500 µM | – | Non-toxic | – | – | –
42 | O=C1CCC(=O)N1c1ccccc1 | > 500 µM | > 500 µM | > 500 µM | – | Non-toxic | – | – | –
43 | O=C1C=CC(=O)N1c1ccccc1 | 217 µM | 207 µM | 164 µM | – | – | Toxic | Toxic | Toxic
44 | N[C@@H](Cc1ccc(N(CCCl)CCCl)cc1)C(=O)O [MELPHALAN] | 2.5 µM | 3.2 µM | 2.1 µM | – | – | – | – | –
